Measurements: the NIST ThermoML archive (doi:10.1021/je0501843)
Several values for one entry are separate records, joined by “and”; a condition that tells them apart may be missing. Equal entries are not always repeated. ± gives the expanded uncertainty stated by the source.

Test: molar heat capacity at constant volume
Details: Fluid (supercritical or subcritical phases), Vacuum adiabatic calorimetry

FC(F)C(F)(F)F [pentafluoroethane]
Details	molar heat capacity at constant volume
350 K, Mass density=585.7 kg/m3	121.87 ± 2.4 J/K/mol and 115.26 ± 2.3 J/K/mol
350 K, Mass density=688.6 kg/m3	121.82 ± 2.4 J/K/mol
350 K, Mass density=774 kg/m3	115.87 ± 2.3 J/K/mol
350 K, Mass density=882.7 kg/m3	111.2 ± 2.2 J/K/mol
350 K, Mass density=975 kg/m3	106.81 ± 2.1 J/K/mol and 108.22 ± 2.2 J/K/mol
350 K, Mass density=1076.5 kg/m3	105.51 ± 2.1 J/K/mol and 105.75 ± 2.1 J/K/mol
351 K, Mass density=403.4 kg/m3	114.03 ± 2.3 J/K/mol
351 K, Mass density=503 kg/m3	115.42 ± 2.3 J/K/mol
351 K, Mass density=585.7 kg/m3	123.23 ± 2.5 J/K/mol and 114 ± 2.3 J/K/mol
351 K, Mass density=688.6 kg/m3	119.91 ± 2.4 J/K/mol
351 K, Mass density=773.9 kg/m3	114.06 ± 2.3 J/K/mol
351 K, Mass density=882.7 kg/m3	110.25 ± 2.2 J/K/mol
351 K, Mass density=974.9 kg/m3	106.01 ± 2.1 J/K/mol and 107.36 ± 2.2 J/K/mol
351 K, Mass density=1076.4 kg/m3	105.26 ± 2.1 J/K/mol and 105.57 ± 2.1 J/K/mol
352 K, Mass density=403.5 kg/m3	110.23 ± 2.2 J/K/mol
352 K, Mass density=503 kg/m3	114.08 ± 2.3 J/K/mol
352 K, Mass density=585.7 kg/m3	123.57 ± 2.5 J/K/mol and 113.02 ± 2.3 J/K/mol
352 K, Mass density=688.6 kg/m3	117.02 ± 2.4 J/K/mol
352 K, Mass density=773.9 kg/m3	113.16 ± 2.3 J/K/mol
352 K, Mass density=882.6 kg/m3	108.96 ± 2.2 J/K/mol
352 K, Mass density=974.8 kg/m3	106.96 ± 2.1 J/K/mol and 107.86 ± 2.2 J/K/mol
352 K, Mass density=1076.3 kg/m3	105.75 ± 2.1 J/K/mol and 105.23 ± 2.1 J/K/mol
353 K, Mass density=403.5 kg/m3	109.29 ± 2.2 J/K/mol
353 K, Mass density=503 kg/m3	114.32 ± 2.3 J/K/mol
353 K, Mass density=585.7 kg/m3	120.99 ± 2.4 J/K/mol and 113.07 ± 2.3 J/K/mol
353 K, Mass density=688.5 kg/m3	116.8 ± 2.4 J/K/mol
353 K, Mass density=773.8 kg/m3	113.56 ± 2.3 J/K/mol
353 K, Mass density=882.5 kg/m3	110.9 ± 2.2 J/K/mol
353 K, Mass density=974.7 kg/m3	107.31 ± 2.2 J/K/mol and 108.33 ± 2.2 J/K/mol
353 K, Mass density=1076.2 kg/m3	106.21 ± 2.1 J/K/mol and 105.67 ± 2.1 J/K/mol
354 K, Mass density=403.6 kg/m3	113.22 ± 2.3 J/K/mol
354 K, Mass density=503 kg/m3	115.36 ± 2.3 J/K/mol
354 K, Mass density=585.7 kg/m3	119.21 ± 2.4 J/K/mol and 111.24 ± 2.2 J/K/mol
354 K, Mass density=688.5 kg/m3	117.18 ± 2.4 J/K/mol
354 K, Mass density=773.8 kg/m3	113.7 ± 2.3 J/K/mol
354 K, Mass density=882.5 kg/m3	112.32 ± 2.3 J/K/mol
354 K, Mass density=974.6 kg/m3	107.07 ± 2.1 J/K/mol and 107.84 ± 2.2 J/K/mol
354 K, Mass density=1076.1 kg/m3	105.5 ± 2.1 J/K/mol and 106.64 ± 2.1 J/K/mol
355 K, Mass density=403.6 kg/m3	113.06 ± 2.3 J/K/mol
355 K, Mass density=503 kg/m3	114.26 ± 2.3 J/K/mol
355 K, Mass density=585.7 kg/m3	121.17 ± 2.4 J/K/mol and 110.25 ± 2.2 J/K/mol
355 K, Mass density=688.5 kg/m3	116.52 ± 2.3 J/K/mol
355 K, Mass density=773.7 kg/m3	113.14 ± 2.3 J/K/mol
355 K, Mass density=882.4 kg/m3	110.04 ± 2.2 J/K/mol
355 K, Mass density=974.6 kg/m3	106.63 ± 2.1 J/K/mol and 107.29 ± 2.2 J/K/mol
355 K, Mass density=1076 kg/m3	104.47 ± 2.1 J/K/mol and 105.31 ± 2.1 J/K/mol
356 K, Mass density=403.6 kg/m3	111.13 ± 2.2 J/K/mol
356 K, Mass density=503 kg/m3	114 ± 2.3 J/K/mol
356 K, Mass density=585.7 kg/m3	121.39 ± 2.4 J/K/mol and 110.52 ± 2.2 J/K/mol
356 K, Mass density=688.4 kg/m3	115.44 ± 2.3 J/K/mol
356 K, Mass density=773.7 kg/m3	112.56 ± 2.3 J/K/mol
356 K, Mass density=882.4 kg/m3	109.83 ± 2.2 J/K/mol
356 K, Mass density=974.5 kg/m3	106.76 ± 2.1 J/K/mol and 106.98 ± 2.1 J/K/mol
356 K, Mass density=1075.9 kg/m3	105.59 ± 2.1 J/K/mol and 105.04 ± 2.1 J/K/mol
357 K, Mass density=403.6 kg/m3	111.14 ± 2.2 J/K/mol
357 K, Mass density=503 kg/m3	114.3 ± 2.3 J/K/mol
357 K, Mass density=585.6 kg/m3	111.96 ± 2.2 J/K/mol
357 K, Mass density=585.7 kg/m3	119.54 ± 2.4 J/K/mol
357 K, Mass density=688.4 kg/m3	115.72 ± 2.3 J/K/mol
357 K, Mass density=773.7 kg/m3	114.08 ± 2.3 J/K/mol
357 K, Mass density=882.3 kg/m3	111.13 ± 2.2 J/K/mol
357 K, Mass density=974.4 kg/m3	107.52 ± 2.2 J/K/mol and 108.27 ± 2.2 J/K/mol
357 K, Mass density=1075.8 kg/m3	106.52 ± 2.1 J/K/mol and 106.05 ± 2.1 J/K/mol
358 K, Mass density=403.6 kg/m3	111.56 ± 2.2 J/K/mol
358 K, Mass density=503 kg/m3	112.47 ± 2.3 J/K/mol
358 K, Mass density=585.6 kg/m3	118.73 ± 2.4 J/K/mol and 110.52 ± 2.2 J/K/mol
358 K, Mass density=688.4 kg/m3	115.42 ± 2.3 J/K/mol
358 K, Mass density=773.6 kg/m3	113.91 ± 2.3 J/K/mol
358 K, Mass density=882.2 kg/m3	110.62 ± 2.2 J/K/mol
358 K, Mass density=974.3 kg/m3	107.37 ± 2.2 J/K/mol and 108.93 ± 2.2 J/K/mol
358 K, Mass density=1075.7 kg/m3	105.71 ± 2.1 J/K/mol and 106.8 ± 2.1 J/K/mol
359 K, Mass density=403.6 kg/m3	112.17 ± 2.3 J/K/mol
359 K, Mass density=503 kg/m3	112.71 ± 2.3 J/K/mol
359 K, Mass density=585.6 kg/m3	120.73 ± 2.4 J/K/mol and 110.01 ± 2.2 J/K/mol
359 K, Mass density=688.3 kg/m3	114.6 ± 2.3 J/K/mol
359 K, Mass density=773.6 kg/m3	112.66 ± 2.3 J/K/mol
359 K, Mass density=882.2 kg/m3	109.41 ± 2.2 J/K/mol
359 K, Mass density=974.3 kg/m3	106.84 ± 2.1 J/K/mol and 107.68 ± 2.2 J/K/mol
359 K, Mass density=1075.6 kg/m3	105.11 ± 2.1 J/K/mol and 106.04 ± 2.1 J/K/mol
360 K, Mass density=403.6 kg/m3	111.06 ± 2.2 J/K/mol
360 K, Mass density=503 kg/m3	113.85 ± 2.3 J/K/mol
360 K, Mass density=585.6 kg/m3	119.64 ± 2.4 J/K/mol and 111.46 ± 2.2 J/K/mol
360 K, Mass density=688.3 kg/m3	115.44 ± 2.3 J/K/mol
360 K, Mass density=773.5 kg/m3	113.01 ± 2.3 J/K/mol
360 K, Mass density=882.1 kg/m3	109.1 ± 2.2 J/K/mol
360 K, Mass density=974.2 kg/m3	106.66 ± 2.1 J/K/mol and 107.71 ± 2.2 J/K/mol
360 K, Mass density=1075.5 kg/m3	106.19 ± 2.1 J/K/mol and 105.87 ± 2.1 J/K/mol
361 K, Mass density=403.6 kg/m3	110.42 ± 2.2 J/K/mol
361 K, Mass density=503 kg/m3	112.26 ± 2.3 J/K/mol
361 K, Mass density=585.6 kg/m3	116.41 ± 2.3 J/K/mol and 111.57 ± 2.2 J/K/mol
361 K, Mass density=688.3 kg/m3	115.6 ± 2.3 J/K/mol
361 K, Mass density=773.5 kg/m3	113.86 ± 2.3 J/K/mol
361 K, Mass density=882.1 kg/m3	110.89 ± 2.2 J/K/mol
361 K, Mass density=974.1 kg/m3	107.11 ± 2.1 J/K/mol and 108.37 ± 2.2 J/K/mol
361 K, Mass density=1075.4 kg/m3	106.59 ± 2.1 J/K/mol
362 K, Mass density=403.6 kg/m3	109.78 ± 2.2 J/K/mol
362 K, Mass density=503 kg/m3	111.4 ± 2.2 J/K/mol
362 K, Mass density=585.6 kg/m3	117.98 ± 2.4 J/K/mol and 110.73 ± 2.2 J/K/mol
362 K, Mass density=688.2 kg/m3	115.95 ± 2.3 J/K/mol
362 K, Mass density=773.4 kg/m3	112.71 ± 2.3 J/K/mol
362 K, Mass density=882 kg/m3	110.8 ± 2.2 J/K/mol
362 K, Mass density=974 kg/m3	107.3 ± 2.2 J/K/mol and 108.22 ± 2.2 J/K/mol
362 K, Mass density=1075.3 kg/m3	106.09 ± 2.1 J/K/mol
363 K, Mass density=403.6 kg/m3	109.94 ± 2.2 J/K/mol
363 K, Mass density=503 kg/m3	114.16 ± 2.3 J/K/mol
363 K, Mass density=585.5 kg/m3	120.74 ± 2.4 J/K/mol and 110.36 ± 2.2 J/K/mol
363 K, Mass density=688.2 kg/m3	116.44 ± 2.3 J/K/mol
363 K, Mass density=773.4 kg/m3	110.53 ± 2.2 J/K/mol
363 K, Mass density=881.9 kg/m3	110.61 ± 2.2 J/K/mol
363 K, Mass density=974 kg/m3	106.41 ± 2.1 J/K/mol and 108.02 ± 2.2 J/K/mol
363 K, Mass density=1075.2 kg/m3	106.37 ± 2.1 J/K/mol
364 K, Mass density=403.6 kg/m3	111.1 ± 2.2 J/K/mol
364 K, Mass density=503 kg/m3	113.42 ± 2.3 J/K/mol
364 K, Mass density=585.5 kg/m3	119.4 ± 2.4 J/K/mol and 109.88 ± 2.2 J/K/mol
364 K, Mass density=688.2 kg/m3	114.69 ± 2.3 J/K/mol
364 K, Mass density=773.3 kg/m3	110.71 ± 2.2 J/K/mol
364 K, Mass density=881.9 kg/m3	110.79 ± 2.2 J/K/mol
364 K, Mass density=973.9 kg/m3	106.7 ± 2.1 J/K/mol and 108.1 ± 2.2 J/K/mol
364 K, Mass density=1075.1 kg/m3	106.31 ± 2.1 J/K/mol
365 K, Mass density=403.6 kg/m3	108.67 ± 2.2 J/K/mol
365 K, Mass density=503 kg/m3	111.49 ± 2.2 J/K/mol
365 K, Mass density=585.5 kg/m3	117.96 ± 2.4 J/K/mol and 110.02 ± 2.2 J/K/mol
365 K, Mass density=688.1 kg/m3	115.26 ± 2.3 J/K/mol
